Data as given in article PMC7347136 (PLoS ONE, 2020).

What was measured:
Test in all cases: Carna kinase panel screen
Type in all cases: biochemical
Conditions in all cases: read-out: % Inhibition ± SD
PKR = target: T1, PKR (Homo sapiens, UniProt P19525)
T1 construct: purchased Carna Biosciences
How it was run: (§1)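 IC50 from a 10-point concentration series run at ATP near Km; percent inhibition per concentration fitted to a four-parameter logistic curve.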

EphA5 = target: T2, EphA5 (Homo sapiens, UniProt P54756)
T2 construct: purchased Carna Biosciences
How it was run: (§2)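 Ten concentrations per compound, ATP approximately at Km, percent inhibition calculated per well and fitted to a 4-parameter logistic for IC50.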

TRKB = target: T3, TRKB (Homo sapiens, UniProt Q16620)
T3 construct: purchased Carna Biosciences
How it was run: as §2

PKD2 = target: T4, PKD2 (Homo sapiens, UniProt Q9BZL6)
T4 construct: purchased Carna Biosciences
How it was run: as §2

HIPK3 = target: T5, HIPK3 (Homo sapiens, UniProt Q9H422)
T5 construct: purchased Carna Biosciences
How it was run: as §2

FRK = target: T6, FRK (Homo sapiens, UniProt P42685)
T6 construct: purchased Carna Biosciences
How it was run: as §2

BRSK2 = target: T7, BRSK2 (Homo sapiens, UniProt Q8IWQ3)
T7 construct: purchased Carna Biosciences
How it was run: as §2

LTK = target: T8, LTK (Homo sapiens, UniProt P29376)
T8 construct: purchased Carna Biosciences
How it was run: as §2

Erk1 = target: T9, Erk1 (Homo sapiens, UniProt P27361)
T9 construct: purchased Carna Biosciences
How it was run: as §1

MST1 = target: T10, MST1 (Homo sapiens, UniProt Q13043)
T10 construct: purchased Carna Biosciences
How it was run: as §2

EphB4 = target: T11, EphB4 (Homo sapiens, UniProt P54760)
T11 construct: purchased Carna Biosciences
How it was run: as §2

LYNb = target: T12, LYNb (Homo sapiens, UniProt P07948)
T12 construct: purchased Carna Biosciences
How it was run: as §2

HCK = target: T13, HCK (Homo sapiens, UniProt P08631)
T13 construct: purchased Carna Biosciences
How it was run: as §2

FGFR3 = target: T14, FGFR3 (Homo sapiens, UniProt P22607)
T14 construct: purchased Carna Biosciences
T14 sequence (P22607 23-806): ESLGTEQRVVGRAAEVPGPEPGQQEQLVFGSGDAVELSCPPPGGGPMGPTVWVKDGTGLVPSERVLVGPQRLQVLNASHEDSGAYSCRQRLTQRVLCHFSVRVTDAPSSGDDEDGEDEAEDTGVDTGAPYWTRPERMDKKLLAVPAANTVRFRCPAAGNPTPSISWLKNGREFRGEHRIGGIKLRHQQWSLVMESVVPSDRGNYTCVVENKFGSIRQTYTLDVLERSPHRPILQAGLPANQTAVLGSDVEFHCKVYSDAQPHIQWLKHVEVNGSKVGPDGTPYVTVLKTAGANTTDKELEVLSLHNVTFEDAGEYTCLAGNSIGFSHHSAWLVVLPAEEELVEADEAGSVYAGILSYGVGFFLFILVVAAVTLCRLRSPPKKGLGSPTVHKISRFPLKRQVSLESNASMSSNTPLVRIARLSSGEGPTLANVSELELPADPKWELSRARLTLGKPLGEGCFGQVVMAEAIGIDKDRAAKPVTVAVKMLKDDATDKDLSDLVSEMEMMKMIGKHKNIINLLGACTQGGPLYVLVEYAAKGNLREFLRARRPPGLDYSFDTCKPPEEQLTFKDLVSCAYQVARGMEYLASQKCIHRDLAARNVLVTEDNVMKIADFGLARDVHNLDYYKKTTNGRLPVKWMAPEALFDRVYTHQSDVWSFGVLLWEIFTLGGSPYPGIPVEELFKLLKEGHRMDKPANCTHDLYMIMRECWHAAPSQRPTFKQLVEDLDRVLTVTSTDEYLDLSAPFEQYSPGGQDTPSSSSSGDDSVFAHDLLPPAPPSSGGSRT
How it was run: as §2

PLK2 = target: T15, PLK2 (Homo sapiens, UniProt Q9NYY3)
T15 construct: purchased Carna Biosciences
T15 sequence (Q9NYY3 whole entry): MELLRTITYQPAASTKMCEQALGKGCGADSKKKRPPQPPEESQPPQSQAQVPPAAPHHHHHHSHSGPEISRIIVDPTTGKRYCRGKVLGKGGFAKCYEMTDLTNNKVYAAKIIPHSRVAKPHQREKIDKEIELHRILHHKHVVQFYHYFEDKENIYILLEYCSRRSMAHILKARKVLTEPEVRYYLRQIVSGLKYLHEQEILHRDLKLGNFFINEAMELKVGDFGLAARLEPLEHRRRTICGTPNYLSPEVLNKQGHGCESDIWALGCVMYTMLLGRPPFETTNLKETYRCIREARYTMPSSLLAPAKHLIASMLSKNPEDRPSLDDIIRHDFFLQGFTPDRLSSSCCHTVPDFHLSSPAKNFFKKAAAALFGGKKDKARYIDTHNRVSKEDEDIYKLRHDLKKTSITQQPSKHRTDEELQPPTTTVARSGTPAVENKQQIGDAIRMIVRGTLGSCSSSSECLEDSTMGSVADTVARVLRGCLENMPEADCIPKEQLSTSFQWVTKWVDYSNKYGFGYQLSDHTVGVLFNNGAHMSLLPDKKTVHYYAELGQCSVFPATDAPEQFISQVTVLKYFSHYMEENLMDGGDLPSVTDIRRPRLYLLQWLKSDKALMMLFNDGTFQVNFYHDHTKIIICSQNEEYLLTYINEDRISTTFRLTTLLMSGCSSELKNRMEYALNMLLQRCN
How it was run: as §2

ROS = target: T16, ROS (Homo sapiens, UniProt P08922)
T16 construct: purchased Carna Biosciences
How it was run: as §2

PASK = target: T17, PASK (Homo sapiens, UniProt Q96RG2)
T17 construct: purchased Carna Biosciences
How it was run: as §2

RSK1 = target: T18, RSK1 (Homo sapiens, UniProt Q15418)
T18 construct: purchased Carna Biosciences
How it was run: as §2

EphB1 = target: T19, EphB1 (Homo sapiens, UniProt P54762)
T19 construct: purchased Carna Biosciences
How it was run: as §2

FGFR4 = target: T20, FGFR4 (Homo sapiens, UniProt P22455)
T20 construct: purchased Carna Biosciences
How it was run: as §2

PKCh = target: T21, PKCh (Homo sapiens, UniProt P24723)
T21 construct: purchased Carna Biosciences
T21 sequence (P24723 whole entry): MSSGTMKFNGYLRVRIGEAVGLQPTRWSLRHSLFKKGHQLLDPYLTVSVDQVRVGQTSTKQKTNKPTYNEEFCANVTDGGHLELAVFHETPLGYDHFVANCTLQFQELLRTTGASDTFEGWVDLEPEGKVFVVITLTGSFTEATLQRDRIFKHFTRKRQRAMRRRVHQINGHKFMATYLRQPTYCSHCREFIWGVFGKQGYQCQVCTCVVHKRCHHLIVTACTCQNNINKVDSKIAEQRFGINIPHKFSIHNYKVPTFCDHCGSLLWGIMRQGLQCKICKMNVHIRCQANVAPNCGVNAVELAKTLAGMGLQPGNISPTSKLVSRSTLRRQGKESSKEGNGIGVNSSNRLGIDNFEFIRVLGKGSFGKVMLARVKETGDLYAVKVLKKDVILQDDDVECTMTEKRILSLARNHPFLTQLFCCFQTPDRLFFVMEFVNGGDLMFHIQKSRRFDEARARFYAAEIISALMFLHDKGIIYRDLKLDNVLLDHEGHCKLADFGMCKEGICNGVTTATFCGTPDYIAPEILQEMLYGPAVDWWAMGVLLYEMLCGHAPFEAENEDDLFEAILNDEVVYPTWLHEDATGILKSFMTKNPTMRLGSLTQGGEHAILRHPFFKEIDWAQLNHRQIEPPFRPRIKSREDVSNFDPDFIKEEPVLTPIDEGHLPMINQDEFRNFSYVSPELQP
How it was run: as §2

PLK3 = target: T22, PLK3 (Homo sapiens, UniProt Q9H4B4)
T22 construct: purchased Carna Biosciences
How it was run: as §2

MLK1 = target: T23, MLK1 (Homo sapiens, UniProt P80192)
T23 construct: purchased Carna Biosciences
How it was run: as §2

SRM = target: T24, SRM (Homo sapiens, UniProt Q9H3Y6)
T24 construct: purchased Carna Biosciences
How it was run: as §2

MAP2K7 = target: T25, MAP2K7 (Homo sapiens, UniProt O14733)
T25 construct: purchased Carna Biosciences
How it was run: as §2

ITK = target: T26, ITK (Homo sapiens, UniProt Q08881)
T26 construct: purchased Carna Biosciences
T26 sequence (Q08881 whole entry): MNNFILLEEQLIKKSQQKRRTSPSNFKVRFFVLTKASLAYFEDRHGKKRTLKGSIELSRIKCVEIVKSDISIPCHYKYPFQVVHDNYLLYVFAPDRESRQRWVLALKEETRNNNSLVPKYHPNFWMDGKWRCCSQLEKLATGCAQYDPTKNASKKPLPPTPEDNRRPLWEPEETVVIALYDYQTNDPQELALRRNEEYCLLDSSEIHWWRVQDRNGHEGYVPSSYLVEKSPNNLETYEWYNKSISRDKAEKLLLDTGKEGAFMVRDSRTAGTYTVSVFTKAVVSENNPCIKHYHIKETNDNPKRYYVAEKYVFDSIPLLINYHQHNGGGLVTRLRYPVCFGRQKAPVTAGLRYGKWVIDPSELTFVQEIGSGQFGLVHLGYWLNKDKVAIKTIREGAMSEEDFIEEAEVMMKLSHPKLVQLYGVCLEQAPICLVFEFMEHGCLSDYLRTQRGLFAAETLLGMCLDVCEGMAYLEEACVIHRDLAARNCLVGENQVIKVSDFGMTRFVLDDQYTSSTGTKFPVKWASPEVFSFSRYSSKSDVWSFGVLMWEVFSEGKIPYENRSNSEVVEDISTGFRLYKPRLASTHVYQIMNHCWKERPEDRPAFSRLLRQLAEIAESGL
How it was run: as §1

HIPK2 = target: T27, HIPK2 (Homo sapiens, UniProt Q9H2X6)
T27 construct: purchased Carna Biosciences
How it was run: as §2

EphA6 = target: T28, EphA6 (Homo sapiens, UniProt Q9UF33)
T28 construct: purchased Carna Biosciences
How it was run: as §2

NEK9 = target: T29, NEK9 (Homo sapiens, UniProt Q8TD19)
T29 construct: purchased Carna Biosciences
How it was run: as §2

CLK2 = target: T30, CLK2 (Homo sapiens, UniProt P49760)
T30 construct: purchased Carna Biosciences
T30 sequence (P49760 whole entry): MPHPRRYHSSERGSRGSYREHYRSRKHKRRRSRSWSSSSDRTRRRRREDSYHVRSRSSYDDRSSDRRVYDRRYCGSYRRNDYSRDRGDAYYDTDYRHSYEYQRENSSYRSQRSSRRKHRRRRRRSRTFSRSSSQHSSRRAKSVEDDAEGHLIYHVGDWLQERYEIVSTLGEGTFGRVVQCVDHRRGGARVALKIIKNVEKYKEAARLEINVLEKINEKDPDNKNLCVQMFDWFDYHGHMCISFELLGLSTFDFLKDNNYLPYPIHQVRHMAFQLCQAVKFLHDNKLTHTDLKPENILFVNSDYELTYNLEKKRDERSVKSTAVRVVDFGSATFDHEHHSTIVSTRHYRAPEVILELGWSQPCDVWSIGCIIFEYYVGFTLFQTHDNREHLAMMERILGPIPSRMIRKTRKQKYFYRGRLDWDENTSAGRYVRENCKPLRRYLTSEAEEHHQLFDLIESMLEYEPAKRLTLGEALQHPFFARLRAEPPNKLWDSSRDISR
How it was run: as §2

TNK1 = target: T31, TNK1 (Homo sapiens, UniProt Q13470)
T31 construct: purchased Carna Biosciences
How it was run: as §2

FGFR3[K650M] = target: T32, FGFR3[K650M] (Homo sapiens, UniProt P22607, K650M)
T32 construct: purchased Carna Biosciences
T32 sequence (P22607 23-806 K650M): as the sequence (P22607 23-806) above, with K628M counted along it
How it was run: as §1

AXL = target: T33, AXL (Homo sapiens, UniProt P30530)
T33 construct: purchased Carna Biosciences
How it was run: as §2

FLT1 = target: T34, FLT1 (Homo sapiens, UniProt P17948)
T34 construct: purchased Carna Biosciences
How it was run: as §2

TRKC = target: T35, TRKC (Homo sapiens, UniProt Q16288)
T35 construct: purchased Carna Biosciences
How it was run: as §2

TIE2 = target: T36, TIE2 (Homo sapiens, UniProt Q02763)
T36 construct: purchased Carna Biosciences
How it was run: as §1

MRCKa = target: T37, MRCKa (Homo sapiens, UniProt Q5VT25)
T37 construct: purchased Carna Biosciences
How it was run: as §2

PHKG2 = target: T38, PHKG2 (Homo sapiens, UniProt P15735)
T38 construct: purchased Carna Biosciences
T38 sequence (P15735 whole entry): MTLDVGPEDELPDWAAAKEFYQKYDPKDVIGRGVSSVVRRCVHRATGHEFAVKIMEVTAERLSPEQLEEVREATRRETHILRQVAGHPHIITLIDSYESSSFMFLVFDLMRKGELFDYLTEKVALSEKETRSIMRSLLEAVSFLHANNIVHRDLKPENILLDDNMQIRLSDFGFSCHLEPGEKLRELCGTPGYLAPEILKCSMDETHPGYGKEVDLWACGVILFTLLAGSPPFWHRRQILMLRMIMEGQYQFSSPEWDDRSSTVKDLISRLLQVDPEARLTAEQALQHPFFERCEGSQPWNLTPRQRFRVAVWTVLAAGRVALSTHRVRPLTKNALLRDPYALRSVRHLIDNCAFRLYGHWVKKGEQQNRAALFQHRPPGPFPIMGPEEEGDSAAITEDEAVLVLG
How it was run: as §1

JAK2 = target: T39, JAK2 (Homo sapiens, UniProt O60674)
T39 construct: purchased Carna Biosciences
How it was run: as §2

NEK7 = target: T40, NEK7 (Homo sapiens, UniProt Q8TDX7)
T40 construct: purchased Carna Biosciences
How it was run: as §2

CaMK1d = target: T41, CaMK1d (Homo sapiens, UniProt Q8IU85)
T41 construct: purchased Carna Biosciences
How it was run: as §2

FMS = target: T42, FMS (Homo sapiens, UniProt P07333)
T42 construct: purchased Carna Biosciences
T42 sequence (P07333 20-972): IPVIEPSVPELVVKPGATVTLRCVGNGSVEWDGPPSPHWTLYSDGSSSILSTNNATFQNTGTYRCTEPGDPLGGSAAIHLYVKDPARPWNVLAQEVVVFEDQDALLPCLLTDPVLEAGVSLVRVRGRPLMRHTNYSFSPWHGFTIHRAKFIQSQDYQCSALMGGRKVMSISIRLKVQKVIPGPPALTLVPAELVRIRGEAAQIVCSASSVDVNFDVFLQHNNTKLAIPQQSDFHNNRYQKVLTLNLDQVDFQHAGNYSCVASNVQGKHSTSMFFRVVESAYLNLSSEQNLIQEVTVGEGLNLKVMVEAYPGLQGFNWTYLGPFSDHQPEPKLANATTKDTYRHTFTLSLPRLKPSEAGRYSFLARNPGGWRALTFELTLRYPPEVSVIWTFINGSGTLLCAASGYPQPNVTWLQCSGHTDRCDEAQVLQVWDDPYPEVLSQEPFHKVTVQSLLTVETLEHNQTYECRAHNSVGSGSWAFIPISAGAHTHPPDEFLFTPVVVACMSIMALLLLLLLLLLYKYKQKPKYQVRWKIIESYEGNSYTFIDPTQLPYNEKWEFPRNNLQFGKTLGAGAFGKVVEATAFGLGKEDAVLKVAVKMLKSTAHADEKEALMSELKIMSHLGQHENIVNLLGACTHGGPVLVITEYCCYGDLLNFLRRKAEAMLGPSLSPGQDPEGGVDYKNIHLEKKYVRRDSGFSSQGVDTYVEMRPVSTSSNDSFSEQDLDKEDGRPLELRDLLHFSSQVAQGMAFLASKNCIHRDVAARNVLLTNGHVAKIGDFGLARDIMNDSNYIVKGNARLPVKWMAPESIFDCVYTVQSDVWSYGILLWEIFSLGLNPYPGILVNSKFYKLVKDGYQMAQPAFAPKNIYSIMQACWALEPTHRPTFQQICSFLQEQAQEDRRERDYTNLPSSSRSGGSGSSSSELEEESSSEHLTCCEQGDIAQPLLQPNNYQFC
How it was run: as §2

AurB = target: T43, AurB (Homo sapiens, UniProt Q96GD4)
T43 construct: purchased Carna Biosciences
T43 sequence (Q96GD4 whole entry): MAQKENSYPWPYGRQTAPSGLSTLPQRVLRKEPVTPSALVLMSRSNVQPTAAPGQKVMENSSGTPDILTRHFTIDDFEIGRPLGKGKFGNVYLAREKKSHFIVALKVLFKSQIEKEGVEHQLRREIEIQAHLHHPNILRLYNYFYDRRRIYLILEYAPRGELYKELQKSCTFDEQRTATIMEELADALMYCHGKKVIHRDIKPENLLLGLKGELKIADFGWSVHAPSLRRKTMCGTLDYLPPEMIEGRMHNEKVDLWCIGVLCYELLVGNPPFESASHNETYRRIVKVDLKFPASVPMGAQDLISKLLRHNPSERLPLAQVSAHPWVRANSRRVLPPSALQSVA
How it was run: as §2

RAF1 = target: T44, RAF1 (Homo sapiens, UniProt P04049)
T44 construct: purchased Carna Biosciences
How it was run: as §2

Question: Which results are given for CC[C@H](Nc1nc(NCc2cnc(C)cc2C)c2ncn(C(C)C)c2n1)[C@@H](C)O [Fadraciclib, 2-pentanol, 3-[[6-[[(4,6-dimethyl-3-pyridinyl)methyl]amino]-9-(1-methylethyl)-9Hpurin-2-yl]amino]-, (2R,3S)]?
Answer: inhibition at 1 µM (PKR): 1.1%; inhibition at 1 µM (EphA5): 4.9 ± 0.2%; inhibition at 1 µM (TRKB): -11.4 ± 0.4%; inhibition at 1 µM (PKD2): -13.4 ± 0.6%; inhibition at 1 µM (HIPK3): -1.1%; inhibition at 1 µM (FRK): 3.6%; inhibition at 1 µM (BRSK2): 1.1%; inhibition at 1 µM (LTK): 6.6 ± 0.1%; inhibition at 1 µM (Erk1): -6.5%; inhibition at 1 µM (MST1): 4 ± 0.1%; inhibition at 1 µM (EphB4): 3.6 ± 0.1%; inhibition at 1 µM (LYNb): -8.7 ± 0.1%; inhibition at 1 µM (HCK): -4.9 ± 0.1%; inhibition at 1 µM (FGFR3): -5.6 ± 0.2%; inhibition at 1 µM (PLK2): 1%; inhibition at 1 µM (ROS): -2 ± 0.1%; inhibition at 1 µM (PASK): -0.4%; inhibition at 1 µM (RSK1): 5.1%; inhibition at 1 µM (EphB1): 3.9 ± 0.1%; inhibition at 1 µM (FGFR4): -14.8%; inhibition at 1 µM (PKCh): -6.1 ± 0.1%; inhibition at 1 µM (PLK3): 5.7 ± 0.3%; inhibition at 1 µM (MLK1): -11.2 ± 0.1%; inhibition at 1 µM (SRM): 3.5 ± 0.1%; inhibition at 1 µM (MAP2K7): -10.6 ± 0.6%; inhibition at 1 µM (ITK): 2.3 ± 0.1%; inhibition at 1 µM (HIPK2): 2.5 ± 0.1%; inhibition at 1 µM (EphA6): 5.7 ± 0.3%; inhibition at 1 µM (NEK9): -23.1 ± 0.2%; inhibition at 1 µM (CLK2): 87.8 ± 2%; inhibition at 1 µM (TNK1): -0.2 ± 0.2%; inhibition at 1 µM (FGFR3[K650M]): 3.2 ± 0.1%; inhibition at 1 µM (AXL): -11.1 ± 0.1%; inhibition at 1 µM (FLT1): 1.9%; inhibition at 1 µM (TRKC): 7.2 ± 0.3%; inhibition at 1 µM (TIE2): 2.9 ± 0.2%; inhibition at 1 µM (MRCKa): -14.8 ± 0.1%; inhibition at 1 µM (PHKG2): -10 ± 0.1%; inhibition at 1 µM (JAK2): 6.1 ± 0.2%; inhibition at 1 µM (NEK7): 0.9%; inhibition at 1 µM (CaMK1d): -14.5 ± 0.1%; inhibition at 1 µM (FMS): -6.3 ± 0.1%; inhibition at 1 µM (AurB): 4.2 ± 0.2%; inhibition at 1 µM (RAF1): -1.1 ± 0.1%
